The data set is described as follows: in vitro. The following applies: human, hela cells, % viability.

As a reminder, the viability is a read-out of living cells in per cent, often relative to untreated cells. Consider `Cc1ncsc1CCOc1nc2ccccc2nc1C(F)(F)F` [CBK115802], for which the viability at 28.5 h, 10 µM was 95.2%.
Still for that read-out and setting: the result for `Cc1nc2c(c(=O)[nH]1)CN(Cc1c(C)oc3ccccc13)CC2` [CBK283984] reads 94.8%.
Take `O=C1COc2ccccc2CCCC[C@@H]2CN(C(=O)Cn3ccc(=O)[nH]c3=O)CC[C@H]2N1` [CBK292048]: the viability at 28.5 h, 10 µM is 102%.
Still for that read-out and setting: the result for `O=C(O)Cn1c2ccccc2c2nc3ccccc3nc21` [CBK263649] reads 81.1%.
In the case of `COc1cncc(-c2cc(NC3CCCCC3)ncn2)c1` [CBK090903], the viability at 28.5 h, 10 µM stood at 96.5%.
On the same count and under the same terms, the result for `COc1ccc(Oc2coc3c(CN(C)C)c(O)ccc3c2=O)cc1` [CBK263653] reads 95.7%; that for `Cc1ccc(Cl)cc1NC(=O)CC(C(=O)O)N(C)C` (centres unmarked) [CBK267105], 112%.
On the same count and under the same terms, for `Cc1ncsc1CCN(C)C(C)C(=O)Nc1nccs1` (centres unmarked) [CBK307709] the value was 109%.
In the case of `COCc1cn(C2CC(O)C(CO)O2)c(=O)[nH]c1=O` (centres unmarked) [CBK201230], the viability at 28.5 h, 10 µM is 99.8%.
In the case of `O=C(O)CCC(=O)NNc1ccccc1[N+](=O)[O-]` [CBK261546], the viability at 28.5 h, 10 µM was 95.7%.
On to `O=C(O)CC1(CC(=O)N2CCC3(CC2)OCc2cc(F)ccc2O3)CCCC1` [CBK060858], for which, where the note is “bulk resorufin, single well”, the viability at 28.5 h, 10 µM came out at 94.7%.
For the compound `Cc1c(C(=O)O)ccc2c1N[C@@H](c1ccc(OCC#N)cc1)C1CC=CC21` (some centres unmarked) [CBK287124], the viability at 28.5 h, 10 µM amounted to 89.2%.
Still for that read-out and setting: the result for `NS(=O)(=O)c1ccc(NC(=O)/C=C/c2cccc([N+](=O)[O-])c2)cc1` [CBK261616] reads 99.5%.
Turning to `CCC(C)(NC=O)C(=O)Nc1ccccc1C(=O)O` (centres unmarked) [CBK287177], the viability at 28.5 h, 10 µM was 97%.
The same measure, in the same setting: for `CCN(CC)CCCNc1oc(-c2ccc(Cl)cc2)nc1C#N` [CBK265746] the value was 126%.
Consider `Cc1ccc(S(=O)(=O)OC[C@H]2O[C@@H](n3cc(C)c(=O)[nH]c3=O)C[C@H]2O)cc1` [CBK201165], for which the viability at 28.5 h, 10 µM was 88.1%.
As for `Cc1ccc(Cc2cnc(NC(=O)NC3CCOCC3)s2)cc1Cl` [CBK304440], the viability at 28.5 h, 10 µM came to 82.2%.
Same read-out and setting: the result for `O=C(CSCc1cccc(Cl)c1)Nc1cccnc1` [CBK264114] reads 95.9%; that for `Cc1nn(CC(=O)NC(C)(C)C)c(=O)c2cc3sccc3n12` [CBK284021], 80.9%; that for `O=C(CCCc1nc2ccccc2c(=O)[nH]1)NC(Cc1ccc(O)cc1)C(=O)O` (centres unmarked) [CBK297130], 101%.
On the same count and under the same terms, for `CCCc1cc(CNC(=O)CN2CCCC(C)C2)on1` (centres unmarked) [CBK282045] the value was 99.8%; for `CCOc1ccc(S(=O)(=O)N(C)CC(=O)O)cc1` [CBK270032], 90.4%.
On the same count and under the same terms, for `Nc1cccc(-c2nc(NC(=O)c3ccncc3)cnc2-c2ccc(F)c(Cl)c2)c1` [CBK037573] the value was 114%; for `O=C(Nc1ccccc1[N+](=O)[O-])C1Cc2ccccc2CN1S(=O)(=O)c1ccc(F)cc1` (centres unmarked) [CBK266129], 102%.
On to `O=C(Nc1ccc([C@@H](O)[C@H]2COCC(=O)N2Cc2ccccn2)cc1)c1cccs1` [CBK289700], for which the viability at 28.5 h, 10 µM came to 109%.
The same measure, in the same setting: the result for `CC(C)C(=O)N1CC2(CCN(CCS(=O)(=O)c3ccccc3)CC2)c2ccccc21` [CBK126726] reads 95.4%; that for `FC(F)(F)C1(NC2(C(Cl)(Cl)Cl)Oc3ccccc3O2)Oc2ccccc2O1` [CBK265544], 90.5%.
Regarding `CC(Sc1ncc(-c2ccc(F)cc2)n1Cc1ccccc1)C(=O)NC1CC1` (centres unmarked) [CBK297105], the viability at 28.5 h, 10 µM came to 108%.
Same read-out and setting: the result for `CN1CCN(S(=O)(=O)c2ccccc2Br)CC1` [CBK062435] reads 93.2%; that for `CCOC(=O)c1nnsc1Sc1ccc(C)cc1` [CBK018867], 89.6%; that for `CCCCNS(=O)(=O)c1ccccc1[N+](=O)[O-]` [CBK261456], 93.1%.
Turning to `O=c1[nH]c2ncc(-c3cccnc3)nc2n1CCN1CCOCC1` [CBK065070], the viability at 28.5 h, 10 µM is 103%.
Same read-out and setting: for `O=[N+]([O-])c1ccccc1CN1CCN(Cc2cccc(Oc3ccccc3)c2)CC1` [CBK264307] the value was 91.3%; for `COc1ccc(-n2nc3ccc(NC(=O)c4sc5ccccc5c4Cl)cc3n2)cc1Cl` [CBK264633], 94.5%; for `O=C(c1ccc(F)cc1)N1C[C@@H]2C[C@H](C1)c1ccc(-c3cncnc3)c(=O)n1C2` [CBK289185], 92.9%.
Turning to `O=C(O)/C=C\C(=O)Nc1cccc(NC(=O)c2cccs2)c1` [CBK263952], the viability at 28.5 h, 10 µM turned out to be 85.7%.
On the same count and under the same terms, the result for `Cc1nccn1CCC1CCN(C(=O)CC2CCCCO2)CC1` (centres unmarked) [CBK281974] reads 84.3%; that for `Cc1nc(C2CCN(C(=O)c3ccn(C)n3)CC2)c2sccn12` [CBK285202], 93.4%; that for `O=S(=O)(/N=C(/Nc1nccs1)c1ccccc1)c1cccs1` [CBK268709], 83.8%.
Same read-out and setting: the result for `CN1CCN(C(=S)SCc2nc(N)nc(Nc3ccc(F)cc3)n2)CC1` [CBK265230] reads 81.4%.
`N#Cc1ccc2nc([C@H]3CCN(C(=O)c4ccccc4)C3)[nH]c2c1` [CBK289379]: the viability at 28.5 h, 10 µM was 92.4%.
Regarding `O=C(Oc1cccc2cnccc12)c1ccccc1` [CBK022889C], the viability at 28.5 h, 10 µM was determined as 105%.
On the same count and under the same terms, for `NS(=O)(=O)c1ccc(CCNC(=O)c2ccc(C#CC3(O)CCCCC3)cc2)cc1` [CBK263104] the value was 93.9%.
The same measure, in the same setting: the result for `Cc1cc(C)nc(N2CCC(CC(=O)Nc3ccccc3CN3CCCC3)CC2)n1` [CBK286072] reads 104%.
Consider `CCOC(=O)C1(c2ccccc2)CCN(C(=O)Cc2ccsc2)CC1` [CBK132172], for which, for the setting “bulk resorufin, single well”, the viability at 28.5 h, 10 µM was found to be 93%.
As for `N#Cc1cnn2c(O)cc(Cc3ccccc3)nc12` [CBK287942], the viability at 28.5 h, 10 µM was 110%.
Same read-out and setting: the result for `Clc1ccc(OCc2n[nH]c(-c3ccccn3)n2)cc1` [CBK269472] reads 90.2%; that for `O=C(Nc1ccc(S(=O)(=O)Nc2ncccn2)cc1)c1ccc(Cl)c([N+](=O)[O-])c1` [CBK263739], 101%.
On the same count and under the same terms, the result for `O=C(C/C=N/OCc1ccccc1)c1sccc1Cl` [CBK021611] reads 96%; that for `Cc1ccc(C2C(C(=O)c3ccc(Cl)cc3)=C(O)C(=O)N2CCCN2CCOCC2)o1` (centres unmarked) [CBK264514], 92.6%; that for `Fc1cc(Br)ccc1-c1cn(-c2ccc(Oc3ccccc3)cc2)nn1` [CBK113145], 89.5%.
With `Nc1cc2ccccc2c(-c2ccsc2)n1` [CBK085710], the viability at 28.5 h, 10 µM was found to be 85.3%.
For the compound `Cc1nc(NC(=O)Cn2c3c(c4ccccc42)CCC3)nn1C` [CBK281377], the viability at 28.5 h, 10 µM came out at 85.5%.
Still for that read-out and setting: for `O=C(COc1ccc(S(=O)(=O)N2CCOCC2)cc1)NCc1ccco1` [CBK268377] the value was 108%; for `COc1ncc(-c2cncc(NCCc3ccccn3)n2)c(OC)n1` [CBK065287], 97.7%.
For the compound `CC(C)c1ccc(C(C)NC(=O)c2ccc(=O)n(CC(=O)NC3CCCC3)c2)cc1` (centres unmarked) [CBK286038], the viability at 28.5 h, 10 µM amounted to 97.4%.
Same read-out and setting: for `CN1CCc2c(sc3c2C(=O)NC(/C=C\c2ccc([N+](=O)[O-])cc2)N3)C1` (centres unmarked) [CBK262909] the value was 86.3%; for `CCOC(=O)c1c(-c2ccc(C)o2)csc1NC(=O)CN1CCCCC1C` (centres unmarked) [CBK265917], 105%.
As to `CCN1CCN(CC(=O)C(C#N)c2ccccc2)CC1` (centres unmarked) [CBK269423], the viability at 28.5 h, 10 µM was found to be 92.8%.
The same measure, in the same setting: for `Cc1ccc2nc(NC3=NC(CC(=O)O)C(=O)N3)nc(C)c2c1` (centres unmarked) [CBK218806] the value was 90.3%.
As to `Cc1[nH]c2ccc(F)cc2c1CC(=O)N(C)CCN1CCCCC1` [CBK282748], the viability at 28.5 h, 10 µM was found to be 84.3%.
Same read-out and setting: for `N#Cc1ccc(-c2cnc(NC(=O)C(F)(F)F)c(-c3ccc(C(=O)N4CCOCC4)cc3)n2)cc1` [CBK093819] the value was 94.2%; for `Cc1nc2c(C(=O)NCCC3OCCO3)cnn2c(C)c1Cc1cccnc1` [CBK162159], 108%.
For the compound `Clc1ccc(Nc2nnns2)cc1Cl` [CBK005211], the viability at 28.5 h, 10 µM was 100%.
Same read-out and setting: for `CC(C)(C)c1cc(C(=O)Nc2ccncc2)n(Cc2ccc(Cl)cc2Cl)n1` [CBK107284] the value was 107%; for `O=C(NCCc1cccs1)Nc1cc(Cl)nc(Cl)c1` [CBK043762], 87.2%; for `CC(C)(C)c1ccc(S(=O)(=O)N2CCN(CCC(=O)O)CC2)cc1` [CBK297089], 103%.
For the compound `Cc1nc(NS(=O)(=O)c2cc(Br)c(Cl)s2)sc1C(=O)O` [CBK045560], the viability at 28.5 h, 10 µM was 96%.
Same read-out and setting: for `CN1CCN(C(=O)Cn2cc(C(=O)Nc3ccc(F)cc3)ccc2=O)C(c2ccccc2)C1` (centres unmarked) [CBK286050] the value was 81.9%; for `O=C(NC(Cc1ccccc1)N1C(=O)c2ccccc2C1=O)N1CCCc2ccccc21` (centres unmarked) [CBK265551], 111%; for `Cc1cnc(CNS(=O)(=O)c2ccc(C(C)C)cc2)cn1` [CBK044615], 118%.
Take `Cc1cc2oc(=O)cc(COC(=O)c3ccc(-n4cccn4)cc3)c2cc1Cl` [CBK296626]: the viability at 28.5 h, 10 µM was 93.9%.
The same measure, in the same setting: the result for `CN1C(=O)CC(Sc2ccccc2C(=O)O)C1=O` (centres unmarked) [CBK287213] reads 89.5%; that for `CN1C(=O)COc2ccccc2C/C=C/C[C@@H]2[C@H]1CCCN2C(=O)CCCNc1ncccn1` [CBK292168], 112%; that for `COc1ccc(CSc2nnc(-c3ccncc3)n2C)cc1[N+](=O)[O-]` [CBK269638], 87.7%.
As for `N#CC1CCCc2c1[nH]c1ccc(Br)cc21` (centres unmarked) [CBK026475], the viability at 28.5 h, 10 µM came out at 64.7%.
Regarding `CCN(CC)C(=O)CN1C2CCC1CC(O)(c1ccco1)C2` (centres unmarked) [CBK284094], the viability at 28.5 h, 10 µM was determined as 106%.
For the compound `COc1ccc2[nH]c3c(c2c1)CCN(C=O)C31CCCN(CCC#N)C1` (centres unmarked) [CBK039445], the viability at 28.5 h, 10 µM came to 107%.
`CCC(C)(C)N1CC(=O)N=C1NCCc1ccc(S(N)(=O)=O)cc1` [CBK007750]: the viability at 28.5 h, 10 µM amounted to 89.6%.
Still for that read-out and setting: for `Nc1ccc2c(-c3ccsc3)ccnc2n1` [CBK067637] the value was 95.5%.

Values taken from paper PMC12040169 (PLOS Biology, 2025).
